Data set [1] is described as follows: Pharmacokinetic study in minipigs after i.v. administration. The settings on record: female, Gottingen, minipig, in vivo, iv. How it is done: The purpose of this example is to determine the half-life in vivo of the derivatives of the present invention after i.v. administration to minipigs, i.e. the prolongation of their time in the body and thereby their time of action. This is done in a pharmacokinetic (PK) study, where the terminal half-life of the derivative in question is determined. By terminal half-life is generally meant the period of time it takes to halve a certain plasma concentration, measured after the initial distribution phase.
Female Gottingen minipigs were obtained from Ellegaard Gottingen Minipigs (Dalmose, Denmark) approximately 7-14 months of age and weighing from approximately 16-35 kg were used in the studies. The minipigs were housed individually and fed restrictedly once daily with SDS minipig diet (Special Diets Services, Essex, UK).
After at 3 weeks of acclimatisation two permanent central venous catheters were implanted in vena cava caudalis in each animal. […]
Plasma was pipetted into Micronic tubes on dry ice and kept at −20° C. until analysed for plasma concentration of the compounds using ELISA, or a similar antibody-based assay, or LCMS. Individual plasma concentration-time profiles were analysed by a non-compartmental model in Phoenix WinNonLin ver. […] (Pharsight Inc., Mountain View, Calif., USA), and the resulting terminal half-lives (harmonic mean) determined.

In data set [2] the target is T1, human GIP receptor (Homo sapiens, UniProt P48546).
T1 construct: expressed in transfected cells; host or cells: BHK (parent line BHKTS13), clone BHK CRE luc2P hGIPR
T1 sequence (P48546 22-466): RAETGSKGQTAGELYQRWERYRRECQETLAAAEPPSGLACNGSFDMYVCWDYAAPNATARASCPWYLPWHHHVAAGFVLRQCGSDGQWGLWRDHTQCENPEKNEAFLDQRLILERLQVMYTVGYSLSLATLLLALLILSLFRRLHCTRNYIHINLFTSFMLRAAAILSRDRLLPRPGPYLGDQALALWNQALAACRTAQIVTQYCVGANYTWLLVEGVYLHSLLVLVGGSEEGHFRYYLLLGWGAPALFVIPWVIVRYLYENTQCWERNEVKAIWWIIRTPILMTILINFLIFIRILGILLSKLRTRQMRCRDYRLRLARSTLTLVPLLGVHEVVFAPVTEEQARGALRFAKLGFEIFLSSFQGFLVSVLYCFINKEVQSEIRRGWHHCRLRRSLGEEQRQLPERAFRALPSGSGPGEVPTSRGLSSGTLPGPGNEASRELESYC
As to the kind of experiment: In vitro functional potency, CRE luciferase reporter gene assay, whole BHK cells expressing hGIPR. The settings on record: BHK CRE luc2P hGIPR cells. Format: cell-based.

Read-outs that look alike come from different tables or passages of the source. Starred links: 1 amine or outer side, 2 acyl side, 3 side chain; linkers in the order of their positions; H or OH if unused. Non-standard residues stand in square brackets, D forms with d. Residues, ends and D or L forms follow the SMILES beside them. Groups on a side chain read outwards from the residue. *: point of attachment. C18 diacid = O=C(O)CCCCCCCCCCCCCCCCC(=O)*; γGlu = O=C(O)[C@H](CCC(=O)[*:2])N[*:1]; εLys = N[C@@H](CCCCN[*:1])C(=O)[*:2]; Aib = CC(C)(N)C(=O)O

The term half-life denotes the time in which the quantity being followed falls by half. Lower therefore signals rapid decline. A word on the EC50: it is the concentration at which the effect is half-maximal.

In data set [1], `CC[C@H](C)[C@H](NC(=O)[C@H](Cc1ccccc1)NC(=O)[C@H](CCC(=O)O)NC(=O)[C@H](CCCNC(=N)N)NC(=O)[C@H](C)NC(=O)[C@H](C)NC(=O)[C@H](CCC(N)=O)NC(=O)[C@H](CCCCNC(=O)[C@@H](N)CCCCNC(=O)[C@@H](N)CCCCNC(=O)CC[C@H](NC(=O)CCCCCCCCCCCCCCCCC(=O)O)C(=O)O)NC(=O)[C@H](CCC(=O)O)NC(=O)[C@H](CC(C)C)NC(=O)[C@H](CC(C)C)NC(=O)[C@@H](NC(=O)[C@H](CO)NC(=O)[C@H](Cc1ccc(O)cc1)NC(=O)[C@H](CC(=O)O)NC(=O)[C@H](CO)NC(=O)[C@@H](NC(=O)[C@H](Cc1ccccc1)NC(=O)[C@@H](NC(=O)CNC(=O)[C@H](CCC(=O)O)NC(=O)C(C)(C)NC(=O)[C@@H](N)Cc1ccc(O)cc1)[C@@H](C)O)[C@@H](C)O)[C@@H](C)CC)C(=O)N[C@@H](CC(N)=O)C(=O)N[C@@H](Cc1c[nH]c2ccccc12)C(=O)N[C@@H](CC(C)C)C(=O)N[C@@H](CC(C)C)C(=O)N[C@@H](C)C(=O)NCC(=O)NCC(=O)N1CCC[C@H]1C(=O)N[C@@H](CO)C(=O)N[C@@H](CO)C(=O)NCC(=O)N[C@@H](C)C(=O)N1CCC[C@H]1C(=O)N1CCC[C@H]1C(=O)N1CCC[C@H]1C(=O)N[C@@H](CO)C(=O)O` [Compound No. 15] (H-Y[Aib]EGTFTSDYSILLEK([εLys-εLys-γGlu-C18 diacid])QAAREFINWLLAGGPSSGAPPPS-OH) had a half-life of 36 h. In addition, the EC50 worked out at 0.0071 nM in data set [2] (0% HSA, read-out: hGIPR, CRE Luc 0% HSA EC50) and 0.138 nM in data set [2] (hGIPR, CRE Luc 1% HSA EC50, 1% HSA).

Values taken from patent publication US20230120597A1, “CO-AGONISTS AT GLP-1 AND GIP RECEPTORS SUITABLE FOR ORAL DELIVERY” (Novo Nordisk A/S, priority 2020, published 2023).
